This note sets out measurements from patent US20060004197A1, “Sulfonamide-based compounds as protein tyrosine kinase inhibitors” (priority 2004, published 2006).

One test deals with T1, Recombinant human Src (Homo sapiens, UniProt P12931).
T1 construct: made in house; host or cells: baculovirus-insect cell system
Briefly: Src tyrosine kinase activity, poly E4Y / 32P-ATP phosphorylation assay. Type of test: biochemical.

The target of the next test is Recombinant Csk (Homo sapiens, UniProt P41240). Briefly: Csk tyrosine kinase activity, poly E4Y / 32P-ATP phosphorylation assay. Type of test: biochemical.
Sequence of Recombinant Csk (P41240 whole entry, species assumed): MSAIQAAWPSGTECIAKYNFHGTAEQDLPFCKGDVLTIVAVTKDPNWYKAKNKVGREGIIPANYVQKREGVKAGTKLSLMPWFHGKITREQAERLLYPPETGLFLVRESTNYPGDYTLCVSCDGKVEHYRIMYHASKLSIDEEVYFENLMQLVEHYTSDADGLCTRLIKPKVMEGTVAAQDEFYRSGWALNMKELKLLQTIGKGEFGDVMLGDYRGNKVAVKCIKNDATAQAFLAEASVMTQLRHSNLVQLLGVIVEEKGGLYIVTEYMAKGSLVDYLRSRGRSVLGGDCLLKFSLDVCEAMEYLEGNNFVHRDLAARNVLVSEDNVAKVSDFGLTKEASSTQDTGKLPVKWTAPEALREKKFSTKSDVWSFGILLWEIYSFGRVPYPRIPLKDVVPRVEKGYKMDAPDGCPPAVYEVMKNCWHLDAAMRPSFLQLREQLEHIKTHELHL
Where [1] appears, read: poly E4Y / 32P-ATP, Formula IV compounds.
[2] abbreviates: Table 2, Formula I compounds, NI = no inhibition at 100 μg/mL.
[3] abbreviates: Table 3, Formula II compounds, NI = no inhibition at 100 μg/mL.
[4] abbreviates: Table 2, compound at 15 ug/mL, read-out: % Inhibition at 15 ug/mL Src (%).
The mark [5] stands for this setting: compound at 15 μg/mL, read-out: % Inhibition at 15 μg/mL Src %.

Like-named read-outs stand apart in the source and are kept apart here.

T1 sequence (P12931 whole entry): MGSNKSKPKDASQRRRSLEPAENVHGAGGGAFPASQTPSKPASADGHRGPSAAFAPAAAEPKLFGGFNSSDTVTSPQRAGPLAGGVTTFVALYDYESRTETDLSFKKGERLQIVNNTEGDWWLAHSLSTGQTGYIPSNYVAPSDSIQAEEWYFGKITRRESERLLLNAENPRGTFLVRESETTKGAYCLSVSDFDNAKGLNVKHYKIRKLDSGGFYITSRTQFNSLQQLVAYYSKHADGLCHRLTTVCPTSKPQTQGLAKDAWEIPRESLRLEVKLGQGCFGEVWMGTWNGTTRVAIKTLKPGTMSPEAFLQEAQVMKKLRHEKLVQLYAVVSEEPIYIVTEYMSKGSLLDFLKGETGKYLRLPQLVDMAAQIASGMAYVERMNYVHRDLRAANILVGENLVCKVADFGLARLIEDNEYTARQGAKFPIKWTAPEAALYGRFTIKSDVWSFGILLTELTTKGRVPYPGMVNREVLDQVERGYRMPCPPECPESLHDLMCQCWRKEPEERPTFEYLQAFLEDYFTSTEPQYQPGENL

Regarding `COC(=O)c1cc(Oc2ccc(OC)cc2)ccc1NS(=O)(=O)c1ccc(C)cc1` [Compound 67, methyl 5-(4-methoxy-phenoxy)-2-(4-toluenesulfonylamino)-benzoate], the IC50 at Recombinant human Src (setting [1]) and at Recombinant Csk (setting [1]) was over 234 µM in each case.

In the case of `Cc1ccc(S(=O)(=O)Nc2cc(SCc3ccccc3)c([N+](=O)[O-])cc2NS(=O)(=O)c2ccc(C)cc2)cc1` [Compound 4t, N-[4-benzylsulfanyl-5-nitro-2-(4-toluenesulfonylamino)-phenyl]-4-toluenesulfonamide], the IC50 amounted to 1.2 µM on Recombinant human Src (setting [2]) and 5.5 µM at Recombinant Csk (setting [2]).

On to `COc1ccc(Oc2ccc(NS(=O)(=O)c3ccc(C)cc3)c(OP(=O)(O)O)c2)cc1` [Compound 43, [5-(4-methoxy-phenoxy)-2-(4-toluenesulfonylamino)-phenyl]-phosphate], for which the IC50 on Recombinant human Src (setting [1]) is 13 µM; at Recombinant Csk (setting [1]) it was over 215 µM.

For `Cc1ccc(S(=O)(=O)Nc2ccc(Cl)cc2NS(=O)(=O)c2ccc(C)cc2)cc1` [Compound 6, N-[4-chloro-2-(4-toluenesulfonylamino)-phenyl]-4-toluenesulfonamide], the IC50 at Recombinant human Src (setting [3]) and on Recombinant Csk (setting [3]) was over 222 µM in each case.

Turning to `COc1ccc(Oc2ccc(NS(=O)(=O)c3ccc([N+](=O)[O-])cc3)c(NS(=O)(=O)c3ccc([N+](=O)[O-])cc3)c2)cc1` [Compound 12r, N-[4-(4-methoxy-phenoxy)-2-(4-nitrobenzenesulfonylamino)-phenyl]-4-nitrobenzenesulfonamide], the IC50 on Recombinant human Src (setting [3]) is 6.6 µM; on Recombinant Csk (setting [3]), over 167 µM.

With `Cc1ccc(S(=O)(=O)Nc2cc(NC3CCCCC3)c([N+](=O)[O-])cc2NS(=O)(=O)c2ccc(C)cc2)cc1` [Compound 9j, N-[4-cyclohexylamino-5-nitro-2-(4-toluenesulfonylamino)-phenyl]-4-toluenesulfonamide], on Recombinant human Src (setting [4]), the inhibition at 15 µg/mL amounted to 4%.

`COc1ccc(Oc2ccc(NC(=O)Cc3ccccc3)c(NS(=O)(=O)c3ccc(C)cc3)c2)cc1` [Compound 71s, N-[4-(4-methoxy-phenoxy)-2-(4-toluenesulfonylamino)-phenyl]-2-phenyl-acetamide]: on Recombinant human Src (setting [5]), the inhibition at 15 µg/mL came to 10%.

For the molecule `COc1ccc(Oc2ccc(NC(=O)c3ccc(C#N)nc3)c(NS(=O)(=O)c3ccc(C)cc3)c2)cc1` [Compound 71b, 6-cyano-N-[4-(4-methoxy-phenoxy)-2-(4-toluenesulfonylamino)-phenyl]-nicotinamide], the inhibition at 15 µg/mL on Recombinant human Src (setting [5]) came to 0%.

With `COc1ccc(Oc2ccc(NS(=O)(=O)CCc3cccc4ccccc34)c(NS(=O)(=O)c3ccc(C)cc3)c2)cc1` [Compound 22y, N-[5-(4-methoxy-phenoxy)-2-(2-naphthalen-1-yl-ethanesulfonylamino)-phenyl]-4-toluenesulfonamide], on Recombinant human Src (setting [3]), the IC50 was found to be 20 µM.

As for `Cc1ccc(S(=O)(=O)Nc2ccc(C(=O)NC(C)(C)C)cc2NS(=O)(=O)c2ccc(C)cc2)cc1` [Compound 22c, N-t-butyl-3,4-bis-(4-toluenesulfonylamino)-benzamide], the IC50 at Recombinant human Src (setting [3]) was 300 µM.

Turning to `CC(=O)OCCCCCOc1ccc(NS(=O)(=O)c2ccc(C)cc2)c(NS(=O)(=O)c2ccc(C)cc2)c1` [Compound 12ee, 5-[3,4-bis-(4-toluenesulfonylamino)-phenoxy]-pentyl acetate], on Recombinant human Src (setting [3]), the IC50 came out at 131 µM.

Turning to `COc1ccc(Oc2ccc(NS(=O)(=O)c3ccc(C)cc3)c(CNS(=O)(=O)c3ccc(C)cc3)c2)cc1` [Compound 71m, N-[4-(4-methoxy-phenoxy)-2-(4-toluenesulfonylamino-methyl)-phenyl]-4-toluenesulfonamide], the IC50 at Recombinant human Src (setting [1]) was 136 µM.

As for `Cc1ccc(S(=O)(=O)Nc2ccc(C(=O)Nc3ccccc3)cc2NS(=O)(=O)c2ccc(C)cc2)cc1` [Compound 22e, N-phenyl-3,4-bis-(4-toluenesulfonylamino)-benzamide], the IC50 on Recombinant human Src (setting [3]) was 149 µM.

As to `Cc1ccc(S(=O)(=O)Nc2cc(N3CCN(C)CC3)c([N+](=O)[O-])cc2NS(=O)(=O)c2ccc(C)cc2)cc1` [Compound 9b, N-[4-(4-methyl-piperazin-1-yl)-5-nitro-2-(4-toluenesulfonylamino)-phenyl]-4-toluenesulfonamide], the inhibition at 15 µg/mL at Recombinant human Src (setting [4]) was 2%.
